Measurements as given in patent publication US9637472B2, “Substituted 6,5-fused bicyclic heteroaryl compounds” (Epizyme, Inc., priority 2011, dated 2017).

target: EZH2 (Homo sapiens (Human), UniProt Q15910); experiment: PRC2 enzyme assay on peptide substrates; assay type: biochemical; conditions: PRC2 enzyme assays on peptide substrates; 4 nM enzyme, 30 min preincubation at 25° C.; read-out: EZH2 IC50
Sequence (Q15910 other isoform, or with tags, fused parts or gaps): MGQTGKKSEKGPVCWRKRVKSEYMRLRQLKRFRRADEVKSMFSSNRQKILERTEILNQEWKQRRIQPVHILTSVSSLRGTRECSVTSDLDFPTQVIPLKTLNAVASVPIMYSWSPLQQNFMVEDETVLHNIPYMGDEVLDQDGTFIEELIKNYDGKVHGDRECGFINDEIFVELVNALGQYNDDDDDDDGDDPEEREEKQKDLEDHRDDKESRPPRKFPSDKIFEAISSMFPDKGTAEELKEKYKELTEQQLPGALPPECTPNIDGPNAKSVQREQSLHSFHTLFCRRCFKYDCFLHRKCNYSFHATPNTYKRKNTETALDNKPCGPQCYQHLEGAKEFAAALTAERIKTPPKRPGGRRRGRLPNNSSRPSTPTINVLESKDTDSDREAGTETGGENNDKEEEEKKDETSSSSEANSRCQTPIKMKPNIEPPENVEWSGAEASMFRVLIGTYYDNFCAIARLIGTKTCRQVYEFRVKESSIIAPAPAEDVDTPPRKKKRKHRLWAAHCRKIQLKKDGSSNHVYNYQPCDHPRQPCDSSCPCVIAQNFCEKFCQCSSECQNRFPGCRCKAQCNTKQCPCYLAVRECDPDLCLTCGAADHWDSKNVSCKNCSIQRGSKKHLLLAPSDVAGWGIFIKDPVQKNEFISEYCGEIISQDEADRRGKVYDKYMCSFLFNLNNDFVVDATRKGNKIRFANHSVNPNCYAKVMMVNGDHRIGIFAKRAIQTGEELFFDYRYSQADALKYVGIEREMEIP
Sequence (O75530 whole entry partner): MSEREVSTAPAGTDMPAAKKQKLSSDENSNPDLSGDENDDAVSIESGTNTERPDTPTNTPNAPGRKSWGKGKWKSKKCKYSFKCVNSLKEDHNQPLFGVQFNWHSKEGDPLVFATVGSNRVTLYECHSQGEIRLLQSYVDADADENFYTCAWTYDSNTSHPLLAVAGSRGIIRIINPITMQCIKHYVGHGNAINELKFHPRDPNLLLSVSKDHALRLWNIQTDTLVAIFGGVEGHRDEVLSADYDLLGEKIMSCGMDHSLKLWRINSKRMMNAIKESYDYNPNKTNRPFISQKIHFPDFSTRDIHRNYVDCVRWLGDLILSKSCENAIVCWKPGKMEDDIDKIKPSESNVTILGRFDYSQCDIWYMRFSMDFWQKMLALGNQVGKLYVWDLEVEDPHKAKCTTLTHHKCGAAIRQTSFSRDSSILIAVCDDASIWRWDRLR
Sequence (Q15022 whole entry partner): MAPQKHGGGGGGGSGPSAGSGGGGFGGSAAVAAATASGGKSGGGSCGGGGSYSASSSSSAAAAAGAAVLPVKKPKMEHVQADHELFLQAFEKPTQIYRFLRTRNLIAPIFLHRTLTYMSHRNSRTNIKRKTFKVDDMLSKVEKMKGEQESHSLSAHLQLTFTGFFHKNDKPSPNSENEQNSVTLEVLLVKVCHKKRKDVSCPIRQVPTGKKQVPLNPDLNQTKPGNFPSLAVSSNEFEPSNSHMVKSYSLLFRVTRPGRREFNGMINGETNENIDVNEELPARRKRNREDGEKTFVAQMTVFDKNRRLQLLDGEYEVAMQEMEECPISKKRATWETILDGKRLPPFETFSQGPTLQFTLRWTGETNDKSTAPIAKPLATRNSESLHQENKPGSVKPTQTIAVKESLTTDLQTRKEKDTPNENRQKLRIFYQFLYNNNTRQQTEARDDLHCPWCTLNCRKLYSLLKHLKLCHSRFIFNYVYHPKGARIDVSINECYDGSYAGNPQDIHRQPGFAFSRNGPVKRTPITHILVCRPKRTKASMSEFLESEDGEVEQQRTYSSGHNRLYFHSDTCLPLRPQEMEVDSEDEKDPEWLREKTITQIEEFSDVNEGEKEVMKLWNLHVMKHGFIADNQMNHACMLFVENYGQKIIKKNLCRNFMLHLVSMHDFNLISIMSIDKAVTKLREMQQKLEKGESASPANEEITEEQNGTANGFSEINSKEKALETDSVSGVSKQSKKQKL
Sequence (Q09028 whole entry partner): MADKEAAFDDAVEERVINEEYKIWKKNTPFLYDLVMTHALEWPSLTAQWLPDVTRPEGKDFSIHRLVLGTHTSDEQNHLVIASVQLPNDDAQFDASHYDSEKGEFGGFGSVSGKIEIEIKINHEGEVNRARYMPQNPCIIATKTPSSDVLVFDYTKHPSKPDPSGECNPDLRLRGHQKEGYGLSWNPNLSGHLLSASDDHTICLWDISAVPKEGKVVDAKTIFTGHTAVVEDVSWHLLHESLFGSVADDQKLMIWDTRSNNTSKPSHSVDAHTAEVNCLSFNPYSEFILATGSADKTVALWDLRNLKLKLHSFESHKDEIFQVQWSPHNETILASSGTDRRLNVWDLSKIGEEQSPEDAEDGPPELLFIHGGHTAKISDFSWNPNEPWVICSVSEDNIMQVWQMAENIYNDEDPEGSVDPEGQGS

SMILES	IC50 [µM]
Cc1cc(C)c(CNC(=O)c2ccnc3c2cnn3C(C)C)c(=O)[nH]1 [Compound B-127]	3 to 10
Cc1cc(C)c(CNC(=O)c2cc(C(=O)N3CCC(N4CCN(C)CC4)CC3)nc3c2cnn3C(C)C)c(=O)[nH]1 [Compound B-128]	3 to 10
Cc1cc(C)c(CNC(=O)c2cc(C3CCOCC3)nc3c2cnn3C(C)C)c(=O)[nH]1 [Compound B-129]	3 to 10
Cc1cc(C)c(CNC(=O)c2cc(C3=CC(C)(C)NC(C)(C)C3)nc3c2cnn3CC2CC2)c(=O)[nH]1 [Compound B-130]	3 to 10
CCn1ncc2c(C(=O)NCc3c(C)cc(C)[nH]c3=O)cc(C3=CC(C)(C)NC(C)(C)C3)nc21 [Compound B-131]	3 to 10
Cc1cc(C)c(CNC(=O)c2cc(C(=O)N(C)CCN(C)C)nc3c2cnn3C(C)C)c(=O)[nH]1 [Compound B-133]	3 to 10
Cc1cc(C)c(CNC(=O)c2cc(N(C)CC(O)CO)nc3c2cnn3C(C)C)c(=O)[nH]1 (stereo not drawn) [Compound B-134]	3 to 10
Cc1cc(C)c(CNC(=O)c2cc(N(C)CCN(C)C)nc3c2cnn3C(C)C)c(=O)[nH]1 [Compound B-135]	3 to 10
Cc1cc(C)c(CNC(=O)c2cc(N(C)C)nc3c2cnn3C(C)C)c(=O)[nH]1 [Compound B-136]	3 to 10
CCc1c(C)[nH]c(=O)c(CNC(=O)c2cc(C3CC(C)(C)NC(C)(C)C3)nc3c2cnn3C(C)C)c1C [Compound B-137]	3 to 10
Cc1cc(C)c(CNC(=O)c2cc(C(=O)N3CCN(C)CC3)nc3c2cnn3C(C)C)c(=O)[nH]1 [Compound B-138]	3 to 10
Cc1[nH]c(=O)c(CNC(=O)c2cc(C3=CC(C)(C)NC(C)(C)C3)nc3c2cnn3C(C)C)c(C)c1C [Compound B-139]	3 to 10
Cc1cc(C)c(CNC(=O)c2cc(C(=O)NCCN(C)C)nc3c2cnn3C(C)C)c(=O)[nH]1 [Compound B-140]	3 to 10
Cc1cc(C)c(CNC(=O)c2cc(C(=O)N(C)C)nc3c2cnn3C(C)C)c(=O)[nH]1 [Compound B-141]	3 to 10
Cc1cc(C)c(CNC(=O)c2cc(C3CCCCC3)nc3c2cnn3C(C)C)c(=O)[nH]1 [Compound B-142]	3 to 10
Cc1[nH]c(=O)c(CNC(=O)c2cc(C3=CC(C)(C)NC(C)(C)C3)nc3c2cnn3C(C)C)c(C)c1Cc1ccccc1 [Compound B-143]	3 to 10
Cc1cc(C)c(CNC(=O)c2cc(C3=CC(C)(C)NC(C)(C)C3)nc3c2cnn3CCC#N)c(=O)[nH]1 [Compound B-144]	3 to 10
Cc1[nH]c(=O)c(CNC(=O)c2cc(C3CC(C)(C)NC(C)(C)C3)nc3c2cnn3C(C)C)c(C)c1Cc1ccccc1 [Compound B-145]	10 to 50
Cc1cc(C)c(CNC(=O)c2cc(C3=CC(C)(C)NC(C)(C)C3)nc3c2cnn3CCO)c(=O)[nH]1 [Compound B-146]	10 to 50
Cc1cc(C)c(CNC(=O)c2cc(O)nc3c2cnn3C(C)C)c(=O)[nH]1 [Compound B-147]	10 to 50
Cc1cc(C)c(CNC(=O)c2cc(C3=CC(C)(C)NC(C)(C)C3)nc3c2cnn3Cc2ccccc2)c(=O)[nH]1 [Compound B-151]	10 to 50
Cc1cc(C)c(CNC(=O)c2cc(C3=CC(C)(C)NC(C)(C)C3)nc3c2cnn3CCN(C)C)c(=O)[nH]1 [Compound B-152]	10 to 50
Cc1cc(C)c(CNC(=O)c2cc(C3=CC(C)(C)NC(C)(C)C3)nc3c2cnn3C)c(=O)[nH]1 [Compound B-153]	10 to 50
CC(=O)n1ncc2c(C(=O)NCc3c(C)cc(C)[nH]c3=O)cc(C3=CC(C)(C)NC(C)(C)C3)nc21 [Compound B-154]	10 to 50
C=CCn1ncc2c(C(=O)NCc3c(C)cc(C)[nH]c3=O)cc(C3=CC(C)(C)NC(C)(C)C3)nc21 [Compound B-155]	10 to 50
CCOC(=O)Cn1ncc2c(C(=O)NCc3c(C)cc(C)[nH]c3=O)cc(C3=CC(C)(C)NC(C)(C)C3)nc21 [Compound B-156]	10 to 50

SMILES	IC50 [µM]
Cc1cc(C)c(CNC(=O)c2cc(C3=CC(C)(C)NC(C)(C)C3)nc3c2cnn3CC(F)(F)F)c(=O)[nH]1 [Compound B-164]	3 to 10
Cc1cc(C)c(CNC(=O)c2cc(-c3ccc(CN4CCOCC4)nc3)cc3c2cnn3C2CCCC2)c(=O)[nH]1 [Compound C-2, 1-cyclopentyl-N-((4,6-dimethyl-2-oxo-1,2-dihydropyridin-3-yl)methyl)-6-(6-(morpholinomethyl)pyridin-3-yl)-1H-indazole-4-carboxamide]	< 0.3
Cc1cc(C)c(CNC(=O)c2cc(-c3ccc(CN(C)C)cc3)cc3c2cnn3C2CCCC2)c(=O)[nH]1 [Compound C-3, 1-cyclopentyl-N-((4,6-dimethyl-2-oxo-1,2-dihydropyridin-3-yl)methyl)-6-(4-((dimethylamino)methyl)phenyl)-1H-indazole-4-carboxamide]	< 0.3
Cc1cc(C)c(CNC(=O)c2cc(-c3ccc(COCCCN(C)C)cc3)cc3c2cnn3C2CCCC2)c(=O)[nH]1 [Compound C-4, 1-cyclopentyl-N-((4,6-dimethyl-2-oxo-1,2-dihydropyridin-3-yl)methyl)-6-(4-((3-(dimethylamino)propoxy)methyl)phenyl)-1H-indazole-4-carboxamide]	< 0.3
Cc1cc(C)c(CNC(=O)c2cc(-c3ccc(CN4CCOCC4)cc3)cc3c2cnn3C(C)C)c(=O)[nH]1 [Compound C-5, N-((4,6-dimethyl-2-oxo-1,2-dihydropyridin-3-yl)methyl)-1-isopropyl-6-(4-(morpholinomethyl)phenyl)-1H-indazole-4-carboxamide]	< 0.3
Cc1cc(C)c(CNC(=O)c2cc(-c3ccc(CN4CCOCC4)cc3C)cc3c2cnn3C2CCCC2)c(=O)[nH]1 [Compound C-6, 1-cyclopentyl-N-((4,6-dimethyl-2-oxo-1,2-dihydropyridin-3-yl)methyl)-6-(2-methyl-4-(morpholinomethyl)phenyl)-1H-indazole-4-carboxamide]	< 0.3
Cc1cc(C)c(CNC(=O)c2cc(-c3cccc(CO)c3)cc3c2cnn3C2CCCC2)c(=O)[nH]1 [Compound C-8, 1-cyclopentyl-N-((4,6-dimethyl-2-oxo-1,2-dihydropyridine-3-yl)methyl)-6-(3-(hydroxymethyl)phenyl)-1H-indazole-4-carboxamide]	0.3 to 1
Cc1cc(C)c(CNC(=O)c2cc(-c3cccc(CNCCO)c3)cc3c2cnn3C2CCCC2)c(=O)[nH]1 [Compound C-9, 1-cyclopentyl-N-((4,6-dimethyl-2-oxo-1,2-dihydropyridin-3-yl)methyl)-6-(3-(((2-hydroxyethyl)amino)methyl)phenyl)-1H-indazole-4-carboxamide]	< 0.3
CNCCCOc1cccc(-c2cc(C(=O)NCc3c(C)cc(C)[nH]c3=O)c3cnn(C4CCCC4)c3c2)c1 [Compound C-10, 1-cyclopentyl-N-((4,6-dimethyl-2-oxo-1,2-dihydropyridin-3-yl)methyl)-6-(3-(3-(methylamino)propoxy)phenyl)-1H-indazole-4-carboxamide]	< 0.3
Cc1cc(C)c(CNC(=O)c2cc(-c3cccc(OCCCN(C)C)c3)cc3c2cnn3C2CCCC2)c(=O)[nH]1 [Compound C-11, 1-cyclopentyl-N-((4,6-dimethyl-2-oxo-1,2-dihydropyridin-3-yl)methyl)-6-(3-(3-(dimethylamino)propoxy)phenyl)-1H-indazole-4-carboxamide]	< 0.3
CNCCCOc1ccc(-c2cc(C(=O)NCc3c(C)cc(C)[nH]c3=O)c3cnn(C4CCCC4)c3c2)cc1 [Compound C-12, 1-cyclopentyl-N-((4,6-dimethyl-2-oxo-1,2-dihydropyridin-3-yl)methyl)-6-(4-(3-(methylamino)propoxy)phenyl)-1H-indazole-4-carboxamide]	< 0.3
Cc1cc(C)c(CNC(=O)c2cc(-c3ccc(CN4CCC[C@@H]4C(N)=O)cc3)cc3c2cnn3C2CCCC2)c(=O)[nH]1 [Compound C-13, (R)-6-(4-((2-carbamoylpyrrolidin-1-yl)methyl)phenyl)-1-cyclopentyl-N-((4,6-dimethyl-2-oxo-1,2-dihydropyridin-3-yl)methyl)-1H-indazole-4-carboxamide]	< 0.3
Cc1cc(C)c(CNC(=O)c2cc(-c3ccc(CN4CCOCC4)cn3)cc3c2cnn3C2CCCC2)c(=O)[nH]1 [Compound C-15, 1-cyclopentyl-N-((4,6-dimethyl-2-oxo-1,2-dihydropyridin-3-yl)methyl)-6-(5-(morpholinomethyl)pyridin-2-yl)-1H-indazole-4-carboxamide]	< 0.3
Cc1cc(C)c(CNC(=O)c2cc(-c3ccc(C)c(S(N)(=O)=O)c3)cc3c2cnn3C2CCCC2)c(=O)[nH]1 [Compound C-16]	< 0.3
Cc1cc(C)c(CNC(=O)c2cc(-c3ccc(CN(C)CCCN(C)C)cc3)cc3c2cnn3C2CCCC2)c(=O)[nH]1 [Compound C-17]	< 0.3
Cc1cc(C)c(CNC(=O)c2cc(-c3ccc(COCCCN4CCOCC4)cc3)cc3c2cnn3C2CCCC2)c(=O)[nH]1 [Compound C-18]	< 0.3
Cc1cc(C)c(CNC(=O)c2cc(-c3cccc(C[N+](C)(C)CCO)c3)cc3c2cnn3C2CCCC2)c(=O)[nH]1 [Compound C-19]	< 0.3
Cc1cc(C)c(CNC(=O)c2cc(-c3ccc(COCCN4CCOCC4)cc3)cc3c2cnn3C2CCCC2)c(=O)[nH]1 [Compound C-20]	< 0.3
Cc1cc(C)c(CNC(=O)c2cc(-c3cccnc3)cc3c2cnn3C2CCCC2)c(=O)[nH]1 [Compound C-21]	< 0.3
Cc1cc(C)c(CNC(=O)c2cc(-c3cccc(COCCN(C)C)c3)cc3c2cnn3C2CCCC2)c(=O)[nH]1 [Compound C-22]	< 0.3
Cc1cc(C)c(CNC(=O)c2cc(-c3cccc(COCCN)c3)cc3c2cnn3C2CCCC2)c(=O)[nH]1 [Compound C-23]	< 0.3
Cc1cc(C)c(CNC(=O)c2cc(-c3cccc(CN4CCN(C)CC4)c3)cc3c2cnn3C(C)C)c(=O)[nH]1 [Compound C-24]	< 0.3
Cc1cc(C)c(CNC(=O)c2cc(-c3ccc(CN4CCNC(=O)C4)cc3)cc3c2cnn3C2CCCC2)c(=O)[nH]1 [Compound C-25]	< 0.3
Cc1cc(CN(C)C)c(CNC(=O)c2cc(-c3ccc(CN4CCOCC4)cc3)cc3c2cnn3C2CCCC2)c(=O)[nH]1 [Compound C-26]	< 0.3
CCOc1ccc(S(=O)(=O)N2CCN(C)CC2)cc1-c1cc(C(=O)NCc2c(C)cc(C)[nH]c2=O)c2cnn(C3CCCC3)c2c1 [Compound C-27]	< 0.3
